{
  "source": "patent US10435447B2",
  "about": "“Bacteriocidal peptides and uses thereof” (priority 2015, dated 2019)",
  "key": {"[1]": {"tested_on": "E. coli", "test": "microbe, parasite or virus in culture", "conditions": "Escherichia coli"}, "[2]": {"tested_on": "P. aeruginosa", "test": "microbe, parasite or virus in culture", "conditions": "Pseudomonas aeruginosa"}, "[3]": {"tested_on": "S. marcescens", "test": "microbe, parasite or virus in culture", "conditions": "Serratia marcescens"}, "[4]": {"tested_on": "S. marcescens"}, "[5]": {"tested_on": "K. pneumoniae", "test": "microbe, parasite or virus in culture", "conditions": "Klebsiella pneumoniae"}, "[6]": {"tested_on": "K. pneumoniae"}, "[7]": {"tested_on": "E. cloacae", "test": "microbe, parasite or virus in culture", "conditions": "Enterobacter cloacae"}, "[8]": {"tested_on": "P. aeruginosa"}, "[9]": {"tested_on": "E. cloacae"}, "[10]": {"tested_on": "E. coli", "conditions": "for LVX MIC fold change (↓ decrease) / MEM MIC fold change (↓ decrease): with SMAP-29C* vs alone"}, "[11]": {"tested_on": "E. faecalis"}, "[12]": {"tested_on": "Toll-like receptor 3 (TLR3)", "conditions": "mouse cells and human cells; earlier finding; cited from earlier work"}, "[13]": {"tested_on": "TLR4", "conditions": "earlier finding; cited from earlier work"}, "[14]": {"tested_on": "Toll-like receptor 3 (TLR3)", "test": "IL-6 ELISA, TLR3 signaling with poly(I:C) in BEAS-2B cells", "format": "cell-based, human", "procedure": "Innate immune signaling by endogenous Toll-like receptor 3 (TLR3) in BEAS-2B cells in response to double-stranded RNA and various bacteriocidal peptides. IL-6 cytokine produced in response to signal transduction by TLR3 and the double-stranded RNA mimic, poly(I:C), was quantified using ELISA. Where present, the peptides were added to the media of BEAS-2B cells to a final concentration of 2 μM. […] All assays were performed in three independent samples and the mean and one standard error is shown above the bars."}, "[15]": {"conditions": "read-out: Kan + SMAP-29C* (Kan MIC)"}, "[16]": {"conditions": "S. marcescens 4104, with SMAP-29C* vs alone"}, "[17]": {"conditions": "K. pneumoniae OC 4110, with SMAP-29C* vs alone"}, "[18]": {"conditions": "P. aeruginosa PA01 oprD, with SMAP-29C* vs alone"}, "[19]": {"conditions": "E. cloacae OC 4080, with SMAP-29C* vs alone"}, "[20]": {"conditions": "read-out: MEM + SMAP-29C* (MEM MIC)"}},
  "note": "Like-named read-outs stand apart in the source and are kept apart here. Residues, ends and D or L forms follow the SMILES beside them.",
  "data": [
    {"compound": "NC[C@H]1O[C@H](O[C@H]2[C@H](O)[C@@H](O[C@H]3O[C@H](CO)[C@@H](O)[C@H](N)[C@H]3O)[C@H](N)C[C@@H]2N)[C@H](O)[C@@H](O)[C@@H]1O", "note": "[Kan, kanamycin]", "values": [
      {"measurement": "MIC", "setting": "[1]; ATCC25922, read-out: Kan (MIC alone)", "result": 2, "unit": "µg/mL"},
      {"measurement": "MIC", "setting": "[1]; read-out: Kan (MIC alone)", "result": 16, "unit": "µg/mL"},
      {"measurement": "MIC", "setting": "[1]; [15]", "result": 8, "unit": "µg/mL"},
      {"measurement": "MIC", "setting": "[2]; read-out: Kan (MIC alone)", "result": 64, "unit": "µg/mL"},
      {"measurement": "MIC", "setting": "[2]; [15]", "result": 32, "unit": "µg/mL"},
      {"measurement": "MIC", "setting": "[3]; read-out: Kan (MIC alone)", "result": 4, "unit": "µg/mL"},
      {"measurement": "Kan MIC Fold change (↓ decrease)", "setting": "[4]; [16]", "result": "↓2x fold"},
      {"measurement": "MIC", "setting": "[5]; read-out: Kan (MIC alone)", "result": 4, "unit": "µg/mL"},
      {"measurement": "Kan MIC Fold change (↓ decrease)", "setting": "[6]; [17]", "result": "↓2x fold"},
      {"measurement": "MIC", "setting": "[7]; read-out: Kan (MIC alone)", "result": 2, "unit": "µg/mL"}
    ]},
    {"compound": "C[C@H]1COc2c(N3CCN(C)CC3)c(F)cc3c(=O)c(C(=O)O)cn1c23", "note": "[LVX, Levofloxacin]", "values": [
      {"measurement": "LVX + SMAP-29C* (LVX MIC)", "setting": "[8]", "result": "<0.125", "unit": "µg/mL"},
      {"measurement": "LVX MIC fold change (↓ decrease)", "setting": "[8]; [18]", "result": "↓>32x fold"},
      {"measurement": "MIC", "setting": "[1]; ATCC25922, read-out: LVX (MIC alone)", "result": 0.016, "unit": "µg/mL"},
      {"measurement": "MIC", "setting": "[1]; read-out: LVX (MIC alone)", "result": 8, "unit": "µg/mL"},
      {"measurement": "MIC", "setting": "[2]; read-out: LVX (MIC alone)", "result": 4, "unit": "µg/mL"},
      {"measurement": "LVX + SMAP-29C* (LVX MIC)", "setting": "[9]", "result": "<0.004", "unit": "µg/mL"},
      {"measurement": "LVX MIC fold change (↓ decrease)", "setting": "[9]; [19]", "result": "↓>8x fold"},
      {"measurement": "MIC", "setting": "[3]; read-out: LVX (MIC alone)", "result": 4, "unit": "µg/mL"},
      {"measurement": "LVX + SMAP-29C* (LVX MIC)", "setting": "[4]", "result": "<0.125", "unit": "µg/mL"},
      {"measurement": "LVX MIC fold change (↓ decrease)", "setting": "[4]; [16]", "result": "↓>32x fold"},
      {"measurement": "MIC", "setting": "[5]; read-out: LVX (MIC alone)", "result": 0.5, "unit": "µg/mL"},
      {"measurement": "LVX + SMAP-29C* (LVX MIC)", "setting": "[6]", "result": 0.5, "unit": "µg/mL"},
      {"measurement": "LVX MIC fold change (↓ decrease)", "setting": "[6]; [17]", "result": 1, "unit": "fold"},
      {"measurement": "LVX MIC fold change (↓ decrease)", "setting": "[10]; E. coli ATCC 25922", "result": 1, "unit": "fold"},
      {"measurement": "LVX MIC fold change (↓ decrease)", "setting": "[10]; E. coli IU-342", "result": "↓4x fold"},
      {"measurement": "MIC", "setting": "[7]; read-out: LVX (MIC alone)", "result": 0.032, "unit": "µg/mL"}
    ]},
    {"compound": "C[C@@H](O)[C@H]1C(=O)N2C(C(=O)O)=C(S[C@@H]3CN[C@H](C(=O)N(C)C)C3)[C@H](C)[C@H]12", "note": "[MEM, Meropenem]", "values": [
      {"measurement": "MEM MIC fold change (↓ decrease)", "setting": "[8]; [18]", "result": "↓2x fold"},
      {"measurement": "MIC", "setting": "[1]; ATCC25922, read-out: MEM (MIC alone)", "result": 0.016, "unit": "µg/mL"},
      {"measurement": "MIC", "setting": "[1]; ATCC25922, read-out: MEM + SMAP-29C* (MEM MIC)", "result": 0.008, "unit": "µg/mL"},
      {"measurement": "MIC", "setting": "[1]; read-out: MEM (MIC alone)", "result": 0.016, "unit": "µg/mL"},
      {"measurement": "MIC", "setting": "[1]; [20]", "result": "< 0.004", "unit": "µg/mL"},
      {"measurement": "MIC", "setting": "[2]; read-out: MEM (MIC alone)", "result": 1, "unit": "µg/mL"},
      {"measurement": "MIC", "setting": "[2]; [20]", "result": 0.5, "unit": "µg/mL"},
      {"measurement": "MEM MIC fold change (↓ decrease)", "setting": "[9]; [19]", "result": "↓4x fold"},
      {"measurement": "MIC", "setting": "[3]; read-out: MEM (MIC alone)", "result": 0.032, "unit": "µg/mL"},
      {"measurement": "MIC", "setting": "[3]; [20]", "result": 0.008, "unit": "µg/mL"},
      {"measurement": "MEM MIC fold change (↓ decrease)", "setting": "[4]; [16]", "result": "↓4x fold"},
      {"measurement": "MIC", "setting": "[5]; read-out: MEM (MIC alone)", "result": 0.052, "unit": "µg/mL"},
      {"measurement": "MIC", "setting": "[5]; [20]", "result": 0.032, "unit": "µg/mL"},
      {"measurement": "MEM MIC fold change (↓ decrease)", "setting": "[6]; [17]", "result": 1, "unit": "x fold"},
      {"measurement": "MEM MIC fold change (↓ decrease)", "setting": "[10]; E. coli ATCC 25922", "result": "↓2x fold"},
      {"measurement": "MEM MIC fold change (↓ decrease)", "setting": "[10]; E. coli IU-342", "result": "↓>4x fold"},
      {"measurement": "MIC", "setting": "[7]; read-out: MEM (MIC alone)", "result": 0.032, "unit": "µg/mL"},
      {"measurement": "MIC", "setting": "[7]; [20]", "result": 0.008, "unit": "µg/mL"}
    ]},
    {"compound": "CC[C@H](C)[C@H](NC(=O)[C@H](CCCCN)NC(=O)[C@H](CCCNC(=N)N)NC(=O)CNC(=O)[C@H](CC(C)C)NC(=O)[C@H](CCCNC(=N)N)NC(=O)[C@H](CCCNC(=N)N)NC(=O)[C@H](CC(C)C)NC(=O)CNC(=O)[C@@H](N)CCCNC(=N)N)C(=O)N[C@@H](C)C(=O)N[C@@H](Cc1c[nH]cn1)C(=O)NCC(=O)N[C@H](C(=O)N[C@@H](CCCCN)C(=O)N[C@@H](CCCCN)C(=O)N[C@@H](CS)C(=O)NCC(=O)N1CCC[C@H]1C(=O)N[C@H](C(=O)N[C@H](C(=O)N[C@@H](CC(C)C)C(=O)N[C@@H](CCCNC(=N)N)C(=O)N[C@H](C(=O)N[C@H](C(=O)N[C@@H](CCCNC(=N)N)C(=O)N[C@H](C(=O)N[C@@H](C)C(=O)NCC(=O)N[C@@H](CS)C(=O)O)[C@@H](C)CC)[C@@H](C)CC)[C@@H](C)CC)C(C)C)[C@@H](C)O)C(C)C", "note": "[SMAP-29C] (H-RGLRRLGRKIAHGVKKCGPTVLRIIRIAGC-OH; N-terminus and C-terminus assumed)", "values": [
      {"measurement": "MIC for ShpC + Kan*", "setting": "[8]", "result": 2, "unit": "µg/mL"},
      {"measurement": "MIC for ShpC + Kan*", "setting": "[9]; E. cloacae OC 4080, with Kan* 1 μg/ml (½ MIC)", "result": 2, "unit": "µg/mL"},
      {"measurement": "MIC for ShpC + Kan*", "setting": "[4]; S. marcescens 4104, with Kan* 2 μg/ml (½ MIC)", "result": 2, "unit": "µg/mL"},
      {"measurement": "SMAP-29C MIC fold change (↓ decrease)", "setting": "[4]; S. marcescens 4104, with Kan* vs alone", "result": "↓>8x fold"},
      {"measurement": "SMAP-29C MIC fold change (↓ decrease)", "setting": "[4]; S. marcescens 4104, with LVX* vs alone", "result": "↓>4x fold"},
      {"measurement": "SMAP-29C MIC fold change (↓ decrease)", "setting": "[4]; S. marcescens 4104, with MEM* vs alone", "result": "No change"},
      {"measurement": "MIC for ShpC + Kan*", "setting": "[6]; K. pneumoniae OC 4110, with Kan* 2 μg/ml (½ MIC)", "result": 2, "unit": "µg/mL"},
      {"measurement": "SMAP-29C MIC fold change (↓ decrease)", "setting": "[6]; K. pneumoniae OC 4110, with Kan* vs alone", "result": "↓4x fold"},
      {"measurement": "SMAP-29C MIC fold change (↓ decrease)", "setting": "[6]; K. pneumoniae OC 4110, with LVX* vs alone", "result": 1, "unit": "x fold"},
      {"measurement": "SMAP-29C MIC fold change (↓ decrease)", "setting": "[6]; K. pneumoniae OC 4110, with MEM* vs alone", "result": "↓2x fold"},
      {"measurement": "MIC for ShpC + Kan*", "setting": "[10]; E. coli ATCC25922, with Kan* 1 μg/ml (½ MIC)", "result": "<0.25", "unit": "µg/mL"},
      {"measurement": "MIC for ShpC + Kan*", "setting": "[10]; E. coli IU-342, with Kan* 8 μg/ml (½ MIC)", "result": 2, "unit": "µg/mL"},
      {"measurement": "MIC", "setting": "[11]", "result": 32, "unit": "µg/mL"}
    ]},
    {"compound": "CRAMP: SEQ ID NO: 4, mouse ortholog of LL-37, GLLRKGGEKIGEKLKKIGQKIKNFFQKLVPQPEQ (listed as Mus musculus)", "values": [
      {"measurement": "activation of signaling by TLR3", "setting": "[12]", "result": "unable to activate signaling by TLR3"},
      {"measurement": "suppression of inflammatory response induced by lipopolysaccharide", "setting": "[13]", "result": "retained the ability to suppress inflammatory response"},
      {"measurement": "enhancement of TLR3 signaling / IL-6 production (in words)", "setting": "[14]", "result": "unable to enhance IL-6 production"}
    ]}
  ]
}
